Results from PMC6261295 (Journal of chromatography. A, 2018).
Counter-ions that a name gives are not always drawn.

What was measured:
[1] = test system: NA; settings: read-out: IC50, literature reported value; cited from earlier work
[2] = biological target: T1, Neuraminidase (from Clostridium perfringens, Type V) immobilized on magnetic beads (NA-MBs) (Clostridium perfringens, UniProt A0A0H2YQR1); assay: biochemical; settings: for inhibition at 50 µM: 0.05 h, read-out: Inhibitory ratio (%)
[3] = test system: NA; settings: cited from earlier work; for binder / non-binder for NA: known active/inactive compounds for NA
[4] = biological target: T1, Neuraminidase (from Clostridium perfringens, Type V) immobilized on magnetic beads (NA-MBs); type: binding; settings: 5.0 mg/mL ethyl acetate extract fraction of Flos Lonicerae, 37 °C, 1 h
[5] = biological target: T1, Neuraminidase (from Clostridium perfringens, Type V) immobilized on magnetic beads (NA-MBs); type: biochemical
[6] = biological target: T1, Neuraminidase (from Clostridium perfringens, Type V) immobilized on magnetic beads (NA-MBs); type: biochemical; settings: 40 μM MUNANA, 37 °C, 3 min

T1 sequence (A0A0H2YQR1 42-694 limits assumed): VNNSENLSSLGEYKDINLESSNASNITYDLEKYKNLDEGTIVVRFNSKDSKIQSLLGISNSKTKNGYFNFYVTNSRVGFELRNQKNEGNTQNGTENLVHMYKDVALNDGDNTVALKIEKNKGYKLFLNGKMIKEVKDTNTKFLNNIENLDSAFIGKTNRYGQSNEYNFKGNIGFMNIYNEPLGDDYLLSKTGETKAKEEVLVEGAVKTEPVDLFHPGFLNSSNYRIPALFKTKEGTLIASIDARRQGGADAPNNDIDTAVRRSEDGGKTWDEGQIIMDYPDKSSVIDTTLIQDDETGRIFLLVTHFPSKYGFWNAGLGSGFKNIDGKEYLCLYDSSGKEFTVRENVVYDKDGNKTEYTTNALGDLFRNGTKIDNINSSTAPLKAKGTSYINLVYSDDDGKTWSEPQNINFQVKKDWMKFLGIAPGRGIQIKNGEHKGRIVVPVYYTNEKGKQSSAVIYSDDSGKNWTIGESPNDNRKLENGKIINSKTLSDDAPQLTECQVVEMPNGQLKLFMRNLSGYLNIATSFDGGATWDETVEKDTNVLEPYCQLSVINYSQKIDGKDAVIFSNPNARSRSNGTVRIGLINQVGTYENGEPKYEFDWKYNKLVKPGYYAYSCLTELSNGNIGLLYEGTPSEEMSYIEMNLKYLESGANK

## CCOC(=O)C1=C[C@@H](OC(CC)CC)[C@H](NC(C)=O)[C@@H](N)C1 [Oseltamivir]
[1]
  IC50: […]
[2]
  inhibition at 50 µM: 74.9 ± 3.5%
[3]
  binder / non-binder for NA: known binder

## O=C1CCC[C@@H]2[C@H]3CCC[N@+]4([O-])CCC[C@@H](CN12)[C@@H]34 [Ammothamnine]
[2]; 50 μM tested compound, 40 μM MUNANA, 5 mg NA-MBs, 37 °C, 3 min, 3% DMSO
  Inhibitory ratio (%): < 1%

## O=c1c(O)c(-c2ccc(O)c(O)c2)oc2cc(O)cc(O)c12 [Quercetin]
[2]
  inhibition at 50 µM: 48.1 ± 3.4%

## O=c1c(O)c(-c2ccc(O)cc2)oc2cc(O)cc(O)c12 [Kaempferol]
[2]
  inhibition at 50 µM: 51.2 ± 6.1%

## Nc1nc2c(ncn2[C@@H]2O[C@H](CO)[C@@H](O)[C@H]2O)c(=O)[nH]1 [Guanosine]
[2]
  inhibition at 50 µM: < 1%

## O=C1CCC[C@@H]2[C@H]3CCC[N+]4([O-])CCC[C@@H](CN12)[C@@H]34 (some centres unmarked) [Oxymatrine]
[2]
  inhibition at 50 µM: < 1%

## O=c1cc(-c2ccc(O)c(O)c2)oc2cc(O)cc(O)c12 [luteolin]
[4]
  Retention on NA-MBs in ligand fishing: retained until the final elution steps

## COc1ccc(-c2oc3cc(O)cc(O)c3c(=O)c2O)cc1 [Kaempferide]
[2]
  inhibition at 50 µM: 43.6 ± 4.9%

## CC(=O)N[C@H]1[C@H]([C@H](O)[C@H](O)CO)O[C@@](Oc2ccc3c(C)cc(=O)oc3c2)(C(=O)O)C[C@@H]1O [MUNANA, 2′-(4-methylumbelliferyl)-α-D-N-acetylneuraminic acid sodium salt hydrate]
[3]; substrate on NA-immobilized capillary microreactor
  Km: 137 ± 10.8 µM
[5]
  Km: 46.5 ± 3.68 µM

## COc1ccc2c3c1O[C@H]1C[C@@H](O)C=C[C@@]31CCN(C)C2 [Galantamine, reference compound]
[2]
  inhibition at 50 µM: < 1%

## COc1cc(-c2oc3cc(O)cc(O)c3c(=O)c2O)ccc1O [Isorhamnetin]
[2]
  inhibition at 50 µM: 46.8 ± 5.8%

## O[C@H]1[C@H]2c3cc4c(cc3CN3CCC(=C[C@@H]1O)[C@H]23)OCO4 [Lycorine]
[2]
  inhibition at 50 µM: < 1%
[3]
  binder / non-binder for NA: reported non-binders

## O=c1cc(-c2ccc(O)c(O)c2)oc2cc(O[C@@H]3O[C@H](CO)[C@@H](O)[C@H](O)[C@H]3O)cc(O)c12 [luteolin-7-O-β-D-glucoside]
[6]
  IC50: 76.5 ± 3.9 µM
[4]
  Retention on NA-MBs in ligand fishing: retained until the final elution steps

## O=C1CCC[C@@H]2[C@H]3CCCN4CCC[C@@H](CN12)[C@@H]34 [matrine]
[3]
  binder / non-binder for NA: reported non-binders

## O=c1c(O[C@@H]2O[C@H](CO)[C@H](O)[C@H](O)[C@H]2O)c(-c2ccc(O)c(O)c2)oc2cc(O)cc(O)c12 [Hyperoside]
[2]
  inhibition at 50 µM: 32.3 ± 2.7%

## O=C(/C=C/c1ccc(O)c(O)c1)OC1CC(O)(C(=O)O)CC(OC(=O)/C=C/c2ccc(O)c(O)c2)C1O (centres unmarked) [3,5-di-O-caffeoylquinic acid]
[6]
  IC50: 61.2 ± 1.5 µM
[4]
  Retention on NA-MBs in ligand fishing: retained until the final elution steps

## Cc1c[nH]c(=O)[nH]c1=O [Thymine]
[2]
  inhibition at 50 µM: < 1%

## Nc1cc[nH]c(=O)n1 [Cytosine]
[2]
  inhibition at 50 µM: < 1%

## O=C(/C=C/c1ccc(O)c(O)c1)OC1CC(O)(C(=O)O)CC(O)C1OC(=O)/C=C/c1ccc(O)c(O)c1 (centres unmarked) [3,4-di-O-caffeoylquinic acid]
[6]
  IC50: 68.3 ± 3.1 µM
[4]
  Retention on NA-MBs in ligand fishing: retained until the final elution steps
